Reference: paper PMC6368365, “Didehydro-Cortistatin A Inhibits HIV-1 by Specifically Binding to the Unstructured Basic Region of Tat” (mBio, 2019)

How the values were obtained:
intracellular Tat = target: T1, intracellular Tat (Human immunodeficiency virus type 1 group M subtype B, UniProt P69697); test: Steady state of recombinant Tat in HeLa-CD4-LTR-Luc cells (Western blot); format: cell-based, HIV-1; details: 6 hours with compound, MG132 10 μM
T1 construct: pTatC6H-1 (NIH AIDS Reagent Program) plasmid encoding C-terminal 6xHistidine Tat1-86 (HXB3, subtype B); made in house; host or cells: E. coli BL21 (plasmid pTatC6H-1, NIH AIDS Reagent Program)
Experimental: FIG 5 dCA stabilizes Tat structure. (A) Trp fluorescence assays. (Left) Schematic of the assay. (Center) DMSO, dCA (7.5× Tat concentration) or raltegravir (Ralt.; 7.5× Tat concentration) was incubated with Tat. The fluorescence of the Trp^11 of Tat protein was measured at the indicated wavelengths. Acrylamide (250 mM) was used as a quenching control of Tat fluorescence. (Right) Peak absorbance (λmax) versus increasing fold ratios of compounds to Tat protein. Data are representative of n = 3 independent experiments. (B) DARTS assays. Tat was incubated with DMSO or dCA, at increasing concentrations, in the presence of increasing concentrations of proteinase K (PK). […] Data are representative of n = 2 independent experiments. (C) Steady state of Tat in the presence of dCA in vivo. HeLa-CD4-LTR-Luc cells were incubated with recombinant Tat and then washed and incubated with the indicated compounds for 6 hours. […] (Left) Western blot representative of n = 4 independent experiments. MG132 was used as a positive control of Tat protection from degradation, and raltegravir was used as a negative control. (Right) Densitometry of the Tat band normalized to the actin band. Results represent the mean ± SEM from n = 4 independent experiments. Statistical significance was determined using one-way ANOVA with post hoc Tukey’s test. ns, not significant; ***, P < 0.0001; **, P < 0.001.
Next, we determined the half-life of recombinant Tat in HeLa-CD4-LTR-Luc cells in the presence of dCA (Fig. 5C). We incubated recombinant Tat with cells for 4 hours, and after several washes to remove extracellular Tat protein, we incubated cells with DMSO, dCA, or raltegravir for an additional 6 hours. Western blotting with anti-His antibody was performed to reveal intracellular Tat. […]
Half-life of Tat in vivo. […] Total protein concentration was assessed by Bradford assay and Tat protein in each condition determined by western blot with an anti-His antibody at 1:1500 dilution (Thermofisher). […]

[1] = MTT viability assay, 72 h; format: cell-based; details: human, HeLa-CD4-LTR-LacZ cells, mean ± SD, n = 2 to 3
Experimental: The assay was performed with MTT [3-(4,5-dimethyl-2-thiazolyl)-2,5-diphenyl-2H-tetrazolium bromide] as described in reference.

T1 sequence (P69697 whole entry): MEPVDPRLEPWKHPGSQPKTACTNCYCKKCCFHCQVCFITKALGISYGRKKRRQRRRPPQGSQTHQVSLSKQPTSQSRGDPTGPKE

CN(C)C1CC23CCC4(O2)C(=CCC2(C)C(c5ccc6ccncc6c5)=CCC24)C=C3C(O)C1O (stereo not drawn) [dCA, didehydro-cortistatin A]
percentage of remaining Tat (intracellular Tat): 40%
CC50 at 72 h [1]: 20 µM

Cc1nnc(C(=O)NC(C)(C)c2nc(C(=O)NCc3ccc(F)cc3)c(O)c(=O)n2C)o1 [raltegravir, reference compound]
percentage of remaining Tat (intracellular Tat): 28%
